Results on 14 compounds are retold here after US20240101573A1, “MACROCYCLIC K-RAS G12C INHIBITOR, PREPARATION METHOD THEREFOR AND USE THEREOF” (Abbisko Therapeutics Co., Ltd., priority 2020, published 2024).

The test system of test [1] is MIA PaCa-2. Kind of test: Anti-proliferation 2D CTG test (MIA PaCa-2). Type of test: cell-based. The note with it: MIAPACA-2 cells, 500 cells/well, 5 days incubation with compound, CTG readout. Put shortly: (§1)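 H358 (1500 cells/well) and MIA PaCa-2 (500 cells/well) seeded overnight, then treated 5 days at 37 °C with 10-point 1:3 dilutions, top final […], 0.5% DMSO. Viability by CellTiter-Glo luminescence; IC50 from four-parameter fit normalized to plate controls.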

Test [2] concerns H358. Kind of test: Anti-proliferation 2D CTG test (H358). The note with it: H358 cells, 1500 cells/well, 5 days incubation with compound, CTG readout. In kind it is cell-based. Put shortly:
as §1

[3] abbreviates: Homo sapiens, MIA PaCa-2, 120 h.

As usually defined, the IC50 is the concentration at which inhibition is half-maximal. `C=CC(=O)N1CCN(c2nc(=O)n3c4nc(c(F)cc24)-c2c(F)cccc2OCC(O)C(OC)c2ccnc(C(C)C)c2-3)[C@@H](C)C1` (stereo partly drawn) [Example 42, (S)-2^4-((S)-4-acryloyl-2-methylpiperazin-1-yl)-7-methoxy-2^6,3^6-difluoro-6-hydroxy-1^2-isopropyl-2^1,2^2-dihydro-4-oxa-2(1,7)-pyrido[2,3-d]pyrimidina-1(3,4)-pyridina-3(1,2)-benzocycloheptane-2^2-one]: the IC50 in test [1] turned out to be 0.669 µM; in test [2] it was 0.977 µM.
For `C=CC(=O)N1CCN(c2nc(=O)n3c4nc(c(F)cc24)-c2c(ccc(Cl)c2F)OCC(O)C(O)c2ccnc(C(C)C)c2-3)[C@@H](C)C1` (stereo partly drawn) [Example 67, (S)-2^4-((S)-4-acryloyl-2-methylpiperazin-1-yl)-3^5-chloro-2^6,3^6-difluoro-6,7-dihydroxy-1^2-isopropyl-2^1,2^2-dihydro-4-oxa-2(1,7)-pyrido[2,3-d]pyrimidina-1(3,4)-pyridina-3(1,2)-benzocycloheptane-2^2-one], the values for the IC50 in test [1] and in test [2] were 0.859 µM and 1.32 µM, respectively.
Take `C=CC(=O)N1CCN(c2nc(=O)n3c4nc(c(F)cc24)-c2c(F)cccc2OCC(OCCF)C(O)c2ccnc(C(C)C)c2-3)[C@@H](C)C1` (stereo partly drawn) [Example 39, (R)-2^4-((S)-4-acryloyl-2-methylpiperazin-1-yl)-2^6,3^6-difluoro-6-(2-fluoroethoxy)-7-hydroxy-1^2-isopropyl-2^1,2^2-dihydro-4-oxa-2(1,7)-pyrido[2,3-d]pyrimidina-1(3,4)-pyridina-3(1,2)-benzocycloheptane-2^2-one]: the results for the IC50 in test [1] and in test [2] were 0.002 µM and 0.004 µM, respectively.
On to `C=CC(=O)N1CCN(c2nc(=O)n3c4nc(c(F)cc24)-c2c(F)cccc2OCC(OCC)C(O)c2ccnc(C(C)C)c2-3)[C@@H](C)C1` (stereo partly drawn) [Example 29, 2^4-((S)-4-acryloyl-2-methylpiperazin-1-yl)-6-ethoxy-2^6,3^6-difluoro-7-hydroxy-1^2-isopropyl-2^1,2^2-dihydro-4-oxa-2(1,7)-pyrido[2,3-d]pyrimidina-1(3,4)-pyridina-3(1,2)-benzocycloheptane-2^2-one], for which the IC50 in test [1] and in test [2] was 0.006 µM in each case.
Consider `C=CC(=O)N1C[C@H](C)N(c2nc(=O)n3c4nc(c(F)cc24)-c2c(ccc(Cl)c2F)OCC(O)C(OCC)c2ccnc(C(C)C)c2-3)C[C@H]1C` (stereo partly drawn) [Example 70, 2^4-((2S,5R)-4-acryloyl-2,5-dimethylpiperazin-1-yl)-3^5-chloro-7-ethoxy-2^6,3^6-difluoro-6-hydroxy-1^2-isopropyl-2^1,2^2-dihydro-4-oxa-2(1,7)-pyrido[2,3-d]pyrimidina-1(3,4)-pyridina-3(1,2)-benzocycloheptane-2^2-one], for which the IC50 in test [1] stood at 0.007 µM; in test [2] it was 0.016 µM.
As for `C=CC(=O)N1CCN(c2nc(=O)n3c4nc(c(F)cc24)-c2c(F)cccc2OCC(=O)C(OC(C)=O)c2ccnc(C(C)C)c2-3)[C@@H](C)C1` (stereo partly drawn) [Example 20, (R)-2^4-((S)-4-acryloyl-2-methylpiperazin-1-yl)-2^6,3^6-difluoro-1^2-isopropyl-2^2,6-dioxo-2^1,2^2-dihydro-4-oxa-2(1,7)-pyrido[2,3-d]pyrimidina-(3,4)-pyridina-3(1,2)-benzocycloheptane-7-yl acetate], the IC50 in test [1] stood at 0.03 µM; in test [2] it was 0.025 µM.
In the case of `C=CC(=O)N1CCN(c2nc(=O)n3c4nc(c(F)cc24)-c2c(F)cccc2OCC(OC(=O)OC(C)(C)C)C(OC(=O)OC(C)(C)C)c2ccnc(C(C)C)c2-3)[C@@H](C)C1` (stereo partly drawn) [Example 15, 2^4-((S)-4-acryloyl-2-methylpiperazin-1-yl)-2^6,3^6-difluoro-1^2-isopropyl-2^2-oxo-2^1,2^2-dihydro-4-oxa-2(1,7)-pyrido[2,3-d]pyrimidina-1(3,4)-pyridina-3(1,2)-benzocycloheptane-6,7-diyl di-tert-butyldi(carbonate)], the half-inhibitory concentration (IC50) in test [1] (setting [3]) is 0.01 µM; in test [2] (Homo sapiens, NCI-H358, 120 h), 0.012 µM.
On to `C=CC(=O)N1CCN(c2nc(=O)n3c4nc(c(F)cc24)-c2c(F)cccc2OCCCc2ccnc(C(C)C)c2-3)[C@@H](C)C1` [Positive compound, reference compound], for which the IC50 in test [1] (setting [3]) is 0.011 µM; in test [2] (Homo sapiens, NCI-H358, 120 h), 0.008 µM.
With “11-((S)-4-acryloyl-2-methylpiperazin-1-yl)-2-((dimethylamino)methyl)-15,21-difluoro-7-isopropyl-3a,20a-dihydro-9H,20H-12,14-(epiethane[1,2]diylidene)benzo[b][1,3]dioxazolo[4,5-j]pyri do[3,4-h]pyrimido[6,1-f][1]oxa[5,7]diazacyclododecin-9-one [Example 64]”, the results for the IC50 in test [1] and in test [2] were 0.001 µM and 0.003 µM, respectively.
For `C=CC(=O)N1CCN(c2nc(=O)n3c4nc(c(F)cc24)-c2c(ccc(Cl)c2F)OCC(OCC)C(O)c2ccnc(C(C)C)c2-3)[C@@H](C)C1` (stereo partly drawn) [Example 69, 2^4-((S)-4-acryloyl-2-methylpiperazin-1-yl)-3^5-chloro-6-ethoxy-2^6,3^6-difluoro-7-hydroxy-1^2-isopropyl-2^1,2^2-dihydro-4-oxa-2(1,7)-pyrido[2,3-d]pyrimidina-1(3,4)-pyridina-3(1,2)-benzocycloheptane-2^2-one], the half-inhibitory concentration (IC50) in test [1] stood at 0.026 µM; in test [2], 0.031 µM.
Consider `C=CC(=O)N1CCN(c2nc(=O)n3c4nc(c(F)cc24)-c2c(F)cccc2OCC(OC(=O)CC)C(OC(=O)CC)c2ccnc(C(C)C)c2-3)[C@@H](C)C1` (stereo partly drawn) [Example 12, 2^4-((S)-4-acryloyl-2-methylpiperazin-1-yl)-2^6,3^6-difluoro-1^2-isopropyl-2^2-oxo-2^1,2^2-dihydro-4-oxa-2(1,7)-pyrido[2,3-d]pyrimidina-1(3,4)-pyridina-3(1,2)-benzocycloheptane-6,7-diyl dipropionate], for which the IC50 is 0.026 µM in test [1] (setting [3]) and 0.026 µM in test [2] (Homo sapiens, NCI-H358, 120 h).
Take `C=CC(=O)N1CCN(c2nc(=O)n3c4nc(c(F)cc24)-c2c(F)cccc2OCC(O)C(OCCF)c2ccnc(C(C)C)c2-3)[C@@H](C)C1` (stereo partly drawn) [Example 37, (R)-2^4-((S)-4-acryloyl-2-methylpiperazin-1-yl)-2^6,3^6-difluoro-7-(2-fluoroethoxy)-6-hydroxy-1^2-isopropyl-2^1,2^2-dihydro-4-oxa-2(1,7)-pyrido[2,3-d]pyrimidina-1(3,4)-pyridina-3(1,2)-benzocycloheptane-2^2-one]: the IC50 came out at 0.005 µM in test [1] and 0.014 µM in test [2].
For `C=CC(=O)N1C[C@H](C)N(c2nc(=O)n3c4nc(c(F)cc24)-c2c(ccc(Cl)c2F)OCC(OCC)C(O)c2ccnc(C(C)C)c2-3)C[C@H]1C` (stereo partly drawn) [Example 78, (R)-2^4-((2S,5R)-4-acryloyl-2,5-dimethylpiperazin-1-yl)-3^5-chloro-6-ethoxy-2^6,3^6-difluoro-7-hydroxy-1^2-isopropyl-2^1,2^2-dihydro-4-oxa-2(1,7)-pyrido[2,3-d]pyrimidina-1(3,4)-pyridina-3(1,2)-benzocycloheptane-2^2-one] the same measures were 0.003 µM and 0.005 µM.
For `C=CC(=O)N1CCN(c2nc(=O)n3c4nc(c(F)cc24)-c2c(F)cccc2OCC(O)C(O)c2ccnc(C(C)C)c2-3)[C@@H](C)C1` (stereo partly drawn) [Example 1-R, (R)-2^4-((S)-4-acryloyl-2-methylpiperazin-1-yl)-2^6,3^6-difluoro-6,7-dihydroxy-1^2-isopropyl-2^1,2^2-dihydro-4-oxa-2(1,7)-pyrido[2,3-d]pyrimidina-1(3,4)-pyridina-3(1,2)-benzocycloheptane-2^2-one] the same measures were 0.012 µM and 0.009 µM.
